Inconclusive results are not listed.
Each compound was assayed on PC12 polyQ huntingtin toxicity, LDH release (assay: mutant huntingtin toxicity rescue agents – PC12 cells, LDH release, LDH100, dose response (AID 1596)).
Work on O=C(c1ccccc1)c1ccc2n1CCC2C(=O)O (stereo unspecified) yielded an EC50 of 8 µM.
In the case of CO[C@@]12[C@@H]3NC3CN1C1=C(C(=O)C(N)=C(C)C1=O)[C@@H]2COC(N)=O (stereo partly specified), the EC50 is reported as 2.5 µM.
CC(C)CC1C(=O)N2CCC[C@H]2C2(O)O[C@](NC(=O)C3C=C4c5cccc6[nH]c(Br)c(c56)C[C@H]4N(C)C3)(C(C)C)C(=O)N12 (stereo partly specified) was tested, and the EC50 was 30 µM.
With O=C(Nc1ccc([N+](=O)[O-])cc1Cl)c1cc(Cl)ccc1O the EC50 was 1 µM.
Compound CC(=O)Nc1ccc(S(=O)(=O)Nc2ccc([N+](=O)[O-])cc2)cc1 has an EC50 of 20 µM.
Work on CC[n+]1c(-c2ccccc2)c2cc(N)ccc2c2ccc(N)cc21 yielded an EC50 of 4 µM.
NC(=O)N/N=C/c1ccc([N+](=O)[O-])o1 gave an EC50 of 20 µM.
CC(=O)OCC(=O)[C@@]1(O)[C@H](C)CC2C3CCC4=CC(=O)C=C[C@]4(C)[C@@]3(F)[C@@H](O)C[C@@]21C (stereo partly specified) was tested, and the EC50 was 0.8 µM.
Compound NCCCCNCCCN has an EC50 of 8 µM.
O=C(O)c1cc2cc(Cc3cccnc3)ccc2o1 was tested, and the EC50 was 20 µM.
CN(C)[C@@H]1C(=O)C(C(N)=O)=C(O)[C@@]2(O)C(=O)C3=C(O)c4c(O)cccc4[C@@](C)(O)[C@H]3[C@H](O)[C@@H]12 showed an EC50 of 100 µM.
COc1ccc(C[C@H](N)C(=O)N[C@@H]2[C@@H](CO)OC(n3cnc4c(N(C)C)ncnc43)[C@@H]2O)cc1 (stereo partly specified) was tested, and the EC50 was 10 µM.
In the case of CCCCCc1cc(O)c2c(c1)OC(C)(C)C1CC=C(C)CC21 (stereo unspecified), the EC50 is reported as 40 µM.
CCCCCc1cc(O)c2c(c1)OC(C)(C)C1CCC(C)=CC21 (stereo unspecified) gave an EC50 of 60 µM.
CN1CCc2cccc3c2C1Cc1ccc(O)c(O)c1-3 (stereo unspecified) was tested, and the EC50 was 10 µM.
CC(C)=CCCC1(C)C=Cc2c(O)c3c(c(CC=C(C)C)c2O1)OC12C(=CC4CC1C(C)(C)OC2(C/C=C(/C)C(=O)O)C4=O)C3=O (stereo unspecified) showed an EC50 of 0.3 µM.
CCCCC[C@H](CC(=O)NO)C(=O)N[C@H](C(=O)N1CCC[C@H]1CO)C(C)C showed an EC50 of 100 µM.
Work on CNC(=O)Oc1ccc2c(c1)[C@]1(C)CCN(C)[C@@H]1N2C yielded an EC50 of 100 µM.
For C=C1C(=O)OC2C1CCC1(C)CCC=C(C)C21 (stereo unspecified), the EC50 was 4 µM.
CC(C)(C)c1ccc(C(O)CCCN2CCC(C(O)(c3ccccc3)c3ccccc3)CC2)cc1 (stereo unspecified) was tested, and the EC50 was 8 µM.
Work on CC(C)=CCC1=C(O)c2ccccc2C(=O)C1=O yielded an EC50 of 100 µM.
COc1ccc(-c2coc3cc(O)cc(O)c3c2=O)cc1 gave an EC50 of 60 µM.
Compound CCCCC(=O)OC1(C(=O)CO)C(C)CC2C3CCC4=CC(=O)C=CC4(C)[C@@]3(F)[C@@H](O)CC21C (stereo partly specified) has an EC50 of 60 µM.
C=C[C@H]1CN2CC[C@H]1C[C@@H]2[C@H](O)c1ccnc2ccccc12 gave an EC50 of 60 µM.
With Oc1c(Cl)cc(Cl)c(Cl)c1Cc1c(O)c(Cl)cc(Cl)c1Cl the EC50 was 10 µM.
Work on Oc1cccc2cccnc12 yielded an EC50 of 20 µM.
Compound CCCCCCCCCCCCCCCCCC(=O)OC(CC(=O)O)C[N+](C)(C)C (stereo unspecified) has an EC50 of 100 µM.
In the case of O=c1c2ccccc2[se]n1-c1ccccc1, the EC50 is reported as 6 µM.
With C[C@@]1(C(=O)O)CC[C@]2(C)CC[C@]3(C)C4=CC=C5C=C(O)C(=O)C=C5[C@]4(C)CC[C@@]3(C)[C@@H]2C1 the EC50 was 0.5 µM.
CCN(CC)CCNc1ccc(CO)c2sc3ccccc3c(=O)c12 gave an EC50 of 4 µM.
NC(=NCc1ccccc1)NC(=O)c1nc(Cl)c(N)nc1N gave an EC50 of 100 µM.
Work on CN(C)CCOC(c1ccc(Cl)cc1)c1ccccn1 (stereo unspecified) yielded an EC50 of 1.5 µM.
CC(NCCC(c1ccccc1)c1ccccc1)c1ccccc1 (stereo unspecified) showed an EC50 of 10 µM.
Work on C[C@@H]1C[C@@H]([C@H](O)CC2CC(=O)NC(=O)C2)C(=O)[C@@H](C)C1 yielded an EC50 of 0.2 µM.
Work on CN1CCc2c(c3ccccc3n2Cc2ccccc2)C1 yielded an EC50 of 30 µM.
CC(=O)Oc1ccc(Cl)c2cccnc12 was tested, and the EC50 was 8 µM.
Compound CCCCCc1cc(O)c2c(c1)OC(C)(C)c1ccc(C)cc1-2 has an EC50 of 40 µM.
CO/N=C(/C(=O)N[C@@H]1C(=O)N2C(C(=O)O)=C(COC(C)=O)CS[C@H]12)c1csc(N)n1 gave an EC50 of 6 µM.
In the case of CNc1ccc2oc(C[C@@H]3OC4(CC[C@@H]3C)O[C@H](C(C)C(=O)c3ccc[nH]3)[C@H](C)C[C@H]4C)nc2c1C(=O)O (stereo partly specified), the EC50 is reported as 0.8 µM.
For CC(=O)c1c(O)c(C)c(O)c2c1OC1=CC(=O)C(C(C)=O)C(=O)C12C (stereo unspecified), the EC50 was 60 µM.
CC(Cc1ccc(O)c(O)c1)C(C)Cc1ccc(O)c(O)c1 (stereo unspecified) showed an EC50 of 8 µM.
O=C1C=C2C(=CCOC2O)O1 (stereo unspecified) showed an EC50 of 1 µM.
With COc1cc2ccc(=O)oc2cc1O the EC50 was 30 µM.
CC(C)C(=O)Nc1ccc([N+](=O)[O-])c(C(F)(F)F)c1 showed an EC50 of 4 µM.
Cc1ccc(C(=O)C(C)CN2CCCCC2)cc1 (stereo unspecified) was tested, and the EC50 was 6 µM.
For O=c1cc(-c2ccc(O)cc2)oc2cc(O)cc(O)c12, the EC50 was 40 µM.
Work on O=c1[nH]c2ccccc2n1C1CCN(CCCC(c2ccc(F)cc2)c2ccc(F)cc2)CC1 yielded an EC50 of 30 µM.
With Nc1c2c(nc3ccccc13)CCCC2 the EC50 was 60 µM.
CC(NC(=O)C(NC(=O)OCc1ccccc1)C(C)C)C(=O)NC(CC(=O)O)C(=O)OC(F)F (stereo unspecified) was tested, and the EC50 was 20 µM.
Work on C[C@H]1c2cccc(O)c2C(O)=C2C(=O)[C@]3(O)C(O)=C(C(N)=O)C(=O)[C@@H](N(C)C)[C@@H]3[C@@H](O)[C@@H]21 yielded an EC50 of 60 µM.
Compound O=C1C=CC(=C(c2ccc(O)cc2)c2ccc(O)cc2)C=C1 has an EC50 of 6 µM.
CO[C@@H]1C[C@@H](C[C@H]2CC[C@H](C)[C@H]([C@@H](C)C(=O)O)O2)O[C@]2(O[C@](C)([C@H]3CC[C@@](C)(C4O[C@@H](C5O[C@@](O)(CO)[C@H](C)C[C@@H]5C)C[C@@H]4C)O3)C[C@H]2C)[C@@H]1C (stereo partly specified) gave an EC50 of 4 µM.
CN[C@@H]1[C@H](OC2[C@H](O[C@H]3[C@H](O)[C@@H](O)[C@H](N=C(N)N)[C@@H](O)[C@@H]3N=C(N)N)O[C@@H](C)[C@]2(O)C=O)O[C@@H](CO)[C@H](O)[C@H]1O (stereo partly specified) was tested, and the EC50 was 100 µM.
For CCOc1ccc2c(c1)C(C)=CC(C)(C)N2, the EC50 was 8 µM.
Cc1cc(C2CCCCC2)n(O)c(=O)c1 showed an EC50 of 2.5 µM.
Compound COC12CC[C@@]3(C[C@@H]1C(C)(O)C(C)(C)C)[C@H]1Cc4ccc(O)c5c4[C@@]3(CCN1CC1CC1)[C@H]2O5 (stereo partly specified) has an EC50 of 100 µM.
Compound Oc1c(Cl)cc(Cl)cc1Sc1cc(Cl)cc(Cl)c1O has an EC50 of 20 µM.
OCC(S)CS (stereo unspecified) gave an EC50 of 10 µM.
With OCCN1CCN(CCCN2c3ccccc3Sc3ccc(Cl)cc32)CC1 the EC50 was 100 µM.
In the case of O=NN(CCCl)C(=O)NCCCl, the EC50 is reported as 4 µM.
Compound C[N+](C)(C)CCOC(N)=O has an EC50 of 1 µM.
With CN(C)c1ccc(C(=C2C=CC(=[N+](C)C)C=C2)c2ccc(N(C)C)cc2)cc1 the EC50 was 0.2 µM.
With CC1(C)O[C@@H]2CC3C4C[C@H](F)C5=CC(=O)C=CC5(C)C4C(O)CC3(C)[C@]2(C(=O)CO)O1 (stereo partly specified) the EC50 was 100 µM.
Work on CC[C@@]1(O)C[C@H](OC2CC(N(C)C)C(OC3CC(O)C(OC4CCC(=O)C(C)O4)C(C)O3)C(C)O2)c2c(cc3c(c2O)C(=O)c2c(O)cccc2C3=O)[C@H]1C(=O)OC (stereo partly specified) yielded an EC50 of 4 µM.
Nc1c(Br)cc(Br)cc1CNC1CCC(O)CC1 (stereo unspecified) gave an EC50 of 100 µM.
With CC[C@H]1OC(=O)[C@H](C)[C@@H](O[C@H]2C[C@@](C)(OC)[C@@H](O)[C@H](C)O2)[C@H](C)[C@@H](O[C@@H]2O[C@H](C)C[C@H](N(C)C)[C@H]2O)[C@](C)(O)C[C@@H](C)CN(C)[C@H](C)[C@@H](O)[C@]1(C)O the EC50 was 100 µM.

From PubChem BioAssay AID1596 (NINDS Approved Drug Screening Program, 2009)
